Reference: ChEMBL document CHEMBL3132769, “Fragment growing to retain or alter the selectivity of anchored kinase hinge-binding fragments” (Medchemcomm, 2014)

Experiments:
[1] = target: T1, Serine/threonine-protein kinase DCLK2 (Homo sapiens) (UniProt Q8N568); test: Inhibition of human full length DCAMKL2 expressed in baculovirus assessed as substrate phosphorylation using fluorescence-labelled peptides as substrate at 2 uM after 90 mins by microfluidic peptide phosphorylation assay
T1 sequence (whole entry): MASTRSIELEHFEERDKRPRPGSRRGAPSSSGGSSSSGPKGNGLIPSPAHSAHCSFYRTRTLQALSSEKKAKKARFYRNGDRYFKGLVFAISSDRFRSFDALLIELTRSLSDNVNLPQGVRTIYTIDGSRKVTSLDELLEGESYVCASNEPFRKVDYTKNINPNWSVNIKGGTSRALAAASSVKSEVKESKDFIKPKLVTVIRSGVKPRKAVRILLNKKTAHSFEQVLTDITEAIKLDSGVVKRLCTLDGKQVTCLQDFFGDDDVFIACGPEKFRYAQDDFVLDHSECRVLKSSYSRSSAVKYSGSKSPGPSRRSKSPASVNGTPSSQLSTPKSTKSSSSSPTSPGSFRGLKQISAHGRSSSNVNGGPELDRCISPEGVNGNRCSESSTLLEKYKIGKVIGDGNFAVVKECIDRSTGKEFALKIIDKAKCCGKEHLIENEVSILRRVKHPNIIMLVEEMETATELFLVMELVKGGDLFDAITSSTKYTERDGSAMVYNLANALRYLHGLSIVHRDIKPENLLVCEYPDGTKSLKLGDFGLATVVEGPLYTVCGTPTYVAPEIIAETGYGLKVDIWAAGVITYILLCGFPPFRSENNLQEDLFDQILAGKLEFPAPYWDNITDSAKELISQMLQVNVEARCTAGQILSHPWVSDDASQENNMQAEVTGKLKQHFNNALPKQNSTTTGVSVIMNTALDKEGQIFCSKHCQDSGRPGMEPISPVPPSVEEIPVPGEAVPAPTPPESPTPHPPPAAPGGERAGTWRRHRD

[2] = target: Protein kinase C eta type (Homo sapiens) (UniProt P24723); test: Inhibition of human truncated PKC eta expressed in baculovirus assessed as substrate phosphorylation using fluorescence-labelled peptides as substrate at 9 uM after 90 mins by microfluidic peptide phosphorylation assay
[3] = target: T2, Serine/threonine-protein kinase BRSK2 (Homo sapiens) (UniProt Q8IWQ3); test: Inhibition of human truncated BRSK2 expressed in baculovirus assessed as substrate phosphorylation using fluorescence-labelled peptides as substrate at 1000 uM after 90 mins by microfluidic peptide phosphorylation assay
T2 sequence (whole entry): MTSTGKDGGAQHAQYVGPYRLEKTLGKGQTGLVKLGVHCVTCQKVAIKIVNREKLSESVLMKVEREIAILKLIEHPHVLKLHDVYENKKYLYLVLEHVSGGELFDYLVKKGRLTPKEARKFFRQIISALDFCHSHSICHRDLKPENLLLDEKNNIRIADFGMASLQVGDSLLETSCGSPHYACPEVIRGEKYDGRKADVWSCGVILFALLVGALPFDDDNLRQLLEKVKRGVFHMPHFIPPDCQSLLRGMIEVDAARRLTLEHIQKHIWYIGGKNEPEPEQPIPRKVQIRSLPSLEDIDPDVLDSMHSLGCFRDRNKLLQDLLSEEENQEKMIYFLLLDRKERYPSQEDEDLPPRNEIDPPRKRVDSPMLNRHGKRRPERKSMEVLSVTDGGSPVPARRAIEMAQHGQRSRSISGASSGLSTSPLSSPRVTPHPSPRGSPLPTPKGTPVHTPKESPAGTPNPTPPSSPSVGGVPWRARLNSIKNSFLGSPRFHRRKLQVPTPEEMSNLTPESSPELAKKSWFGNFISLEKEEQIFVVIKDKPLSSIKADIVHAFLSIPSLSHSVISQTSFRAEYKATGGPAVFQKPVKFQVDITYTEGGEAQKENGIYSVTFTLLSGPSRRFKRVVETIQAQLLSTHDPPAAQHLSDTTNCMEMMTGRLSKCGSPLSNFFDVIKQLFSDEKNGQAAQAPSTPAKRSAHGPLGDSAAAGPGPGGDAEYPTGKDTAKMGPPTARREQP

[4] = target: T3, Mitogen-activated protein kinase 12 (Homo sapiens) (UniProt P53778); test: Inhibition of human full length p38 gamma expressed in Escherichia coli cell assessed as substrate phosphorylation using fluorescence-labelled peptides as substrate at 420 uM after 90 mins by microfluidic peptide phosphorylation assay
T3 sequence (whole entry): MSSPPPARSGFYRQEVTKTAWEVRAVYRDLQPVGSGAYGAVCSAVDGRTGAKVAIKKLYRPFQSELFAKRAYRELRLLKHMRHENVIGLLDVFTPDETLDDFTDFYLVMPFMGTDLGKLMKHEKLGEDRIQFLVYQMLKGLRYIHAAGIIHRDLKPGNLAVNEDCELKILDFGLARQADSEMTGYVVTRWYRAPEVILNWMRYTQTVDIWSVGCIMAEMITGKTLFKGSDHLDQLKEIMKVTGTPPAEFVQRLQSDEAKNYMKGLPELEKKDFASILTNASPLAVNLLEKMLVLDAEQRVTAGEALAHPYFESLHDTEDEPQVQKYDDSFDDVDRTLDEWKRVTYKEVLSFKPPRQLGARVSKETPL

Sequence of Protein kinase C eta type (Homo sapiens) (P24723 whole entry, the tested form may be a part): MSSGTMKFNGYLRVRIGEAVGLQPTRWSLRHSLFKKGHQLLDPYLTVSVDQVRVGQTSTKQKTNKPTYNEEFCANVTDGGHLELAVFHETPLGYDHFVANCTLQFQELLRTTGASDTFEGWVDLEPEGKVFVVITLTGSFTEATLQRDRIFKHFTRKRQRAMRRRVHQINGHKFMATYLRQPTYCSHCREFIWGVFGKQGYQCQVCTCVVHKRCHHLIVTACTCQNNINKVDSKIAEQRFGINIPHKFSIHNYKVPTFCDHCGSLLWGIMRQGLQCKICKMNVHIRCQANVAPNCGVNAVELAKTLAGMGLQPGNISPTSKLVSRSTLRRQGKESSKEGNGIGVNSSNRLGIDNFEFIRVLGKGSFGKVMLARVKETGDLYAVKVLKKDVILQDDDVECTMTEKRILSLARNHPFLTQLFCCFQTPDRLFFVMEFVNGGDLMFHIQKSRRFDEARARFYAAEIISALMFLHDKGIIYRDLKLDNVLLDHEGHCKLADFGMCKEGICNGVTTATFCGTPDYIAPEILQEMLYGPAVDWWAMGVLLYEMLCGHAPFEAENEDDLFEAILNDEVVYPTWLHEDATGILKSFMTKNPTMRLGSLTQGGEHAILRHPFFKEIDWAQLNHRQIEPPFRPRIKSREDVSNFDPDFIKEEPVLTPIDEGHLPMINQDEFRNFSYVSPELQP

`NC1CCN(c2ncnc3[nH]ccc23)CC1` showed an inhibition [1] of 1.5%.

Work on `NCC1CN(c2ncnc3[nH]c4cnccc4c23)CCO1` (centres undefined) yielded an inhibition [2] of 54.5%.

`c1cnc2[nH]ccc2c1` was tested, and the inhibition [3] was 28%.

`c1nc(N2CCOCC2)c2nc[nH]c2n1` gave an inhibition [4] of 41.5%.
